Assay results reported in patent US9497970B2, “Pesticide compounds” (priority 2013, dated 2016).

Experiments:
Assay type in all cases: in vivo
[1] = tested on: Southern Armyworm (Spodoptera eridania), 2nd Instar Larvae; test: B.10 Southern Armyworm (Spodoptera eridania), 2nd Instar Larvae, sprayed lima bean plants; settings: 96 h, 300 ppm, larvae on sprayed lima bean plants, 4 days after treatment, in comparison with untreated controls, read-out: mortality
Method: B.10 Southern Armyworm (Spodoptera eridania), 2nd Instar Larvae
The active compounds were formulated by a Tecan liquid handler in 100% cyclohexanone as a 10,000 ppm solution supplied in tubes. The 10,000 ppm solution was serially diluted in 100% cyclohexanone to make interim solutions. These served as stock solutions for which final dilutions were made by the Tecan in 50% acetone:50% water (v/v) into 5 or 10 ml glass vials. A nonionic surfactant (Kinetic®) was included in the solution at a volume of 0.01% (v/v). The vials were then inserted into an automated electrostatic sprayer equipped with an atomizing nozzle for application to plants/insects.
Lima bean plants (variety Sieva) were grown 2 plants to a pot and selected for treatment at the 1st true leaf stage. Test solutions were sprayed onto the foliage by an automated electrostatic plant sprayer equipped with an atomizing spray nozzle. The plants were dried in the sprayer fume hood and then removed from the sprayer. Each pot was placed into perforated plastic bags with a zip closure. About 10 to 11 armyworm larvae were placed into the bag and the bags zipped closed. Test plants were maintained in a growth room at about 25° C. and about 20-40% relative humidity for 4 days, avoiding direct exposure to fluorescent light (24 hour photoperiod) to prevent trapping of heat inside the bags. Mortality and reduced feeding were assessed 4 days after treatment, compared to untreated control plants.

[2] = tested on: Yellow Fever Mosquito (Aedes aegypti); test: whole plant or invertebrate; settings: 48 h, freshly hatched larvae in tap water, 2 days, in comparison with untreated controls, read-out: mortality (larval)
Method: B.11 Yellow Fever Mosquito (Aedes aegypti)
For evaluating control of yellow fever mosquito (Aedes aegypti) the test unit consisted of 96-well-microtiter plates containing 200 μl of tap water per well and 5-15 freshly hatched A. aegypti larvae.
The active compounds were formulated using a solution containing 75% (v/v) water and 25% (v/v) DMSO. Different concentrations of formulated compounds or mixtures were sprayed onto the insect diet at 2.5 μl, using a custom built micro atomizer, at two replications.

[3] = tested on: Boll Weevil (Anthonomus grandis); test: B.3 Boll Weevil (Anthonomus grandis), microtiter plate insect diet; settings: 120 h, 800 ppm, sprayed onto insect diet, 5 days, in comparison with untreated controls, read-out: mortality (egg and larval)
Method: B.3 Boll Weevil (Anthonomus grandis)
For evaluating control of boll weevil (Anthonomus grandis) the test unit consisted of 96-well-microtiter plates containing an insect diet and 5-10 A. grandis eggs.
(§1) The compounds were formulated using a solution containing 75% v/v water and 25% v/v DMSO. Different concentrations of formulated compounds were sprayed onto the insect diet at 5 μl, using a custom built micro atomizer, at two replications.
After application, microtiter plates were incubated at about 25±1° C. and about 75±5% relative humidity for 5 days. Egg and larval mortality was then visually assessed.

[4] = tested on: Orchid thrips (dichromothrips corbetti); test: B.12 Orchid thrips (dichromothrips corbetti), floral-immersion technique; settings: adult thrips on dipped orchid petals, 72 hours after treatment, in comparison with untreated controls
Method: B.12 Orchid thrips (dichromothrips corbetti)
Dichromothrips corbetti adults used for bioassay were obtained from a colony maintained continuously under laboratory conditions. For testing purposes, the test compound is diluted in a 1:1 mixture of acetone:water (vol:vol), plus Kinetic HV at a rate of 0.01% v/v.
Thrips potency of each compound was evaluated by using a floral-immersion technique. All petals of individual, intact orchid flowers were dipped into treatment solution and allowed to dry in Petri dishes. Treated petals were placed into individual resealable plastic along with about 20 adult thrips. All test arenas were held under continuous light and a temperature of about 28° C. for duration of the assay. After 3 days, the numbers of live thrips were counted on each petal. The percent mortality was recorded 72 hours after treatment.

[5] = tested on: Diamond Back Moth (Plutella xylostella); test: B.1 Diamond Back Moth (Plutella xylostella), cabbage leaf dip; settings: foliar, 500 ppm, 3rd instar larvae on dipped cabbage leaves, 72 hours after treatment, in comparison with untreated controls, read-out: mortality
Method: B.1 Diamond Back Moth (Plutella xylostella)
The active compound was dissolved at the desired concentration in a mixture of 1:1 (vol:vol) distilled water:aceteone. Surfactant (Kinetic HV) was added at a rate of 0.01% (vol/vol). The test solution was prepared at the day of use.
Leaves of cabbage were dipped in test solution and air-dried. Treated leaves were placed in petri dishes lined with moist filter paper and inoculated with ten 3rd instar larvae. Mortality was recorded 72 hours after treatment. Feeding damages were also recorded using a scale of 0-100%.

[6] = tested on: Tobacco Budworm (Heliothis virescens); test: B.7 Tobacco Budworm (Heliothis virescens) I, microtiter plate insect diet; settings: 120 h, 800 ppm, sprayed onto insect diet, 5 days, in comparison with untreated controls, read-out: mortality (egg and larval)
Method: B.7 Tobacco Budworm (Heliothis virescens) I
as §1, with “For evaluating control of tobacco budworm (Heliothis virescens) the test unit consisted of 96-well-microtiter plates containing an insect diet and 15-25 H. virescens eggs. The” for “The”, “at 10” for “at 5”
(§2) After application, microtiter plates were incubated at about 28±1° C. and about 80±5% relative humidity for 5 days. Egg and larval mortality was then visually assessed.

[7] = tested on: Mediterranean Fruitfly (Ceratitis capitata); test: B.6 Mediterranean Fruitfly (Ceratitis capitata), microtiter plate insect diet; settings: 120 h, 800 ppm, sprayed onto insect diet, 5 days, in comparison with untreated controls, read-out: mortality (egg and larval)
Method: B.6 Mediterranean Fruitfly (Ceratitis capitata)
For evaluating control of Mediterranean fruitfly (Ceratitis capitata) the test unit consisted of microtiter plates containing an insect diet and 50-80 C. capitata eggs.
as §1, §2

CCc1ccccc1NC(=S)N/N=C/c1ccc2c(ccc3c2ncn3-c2ccc(OC(F)(F)F)cc2)c1 [C-22, 3-(2-ethylphenyl)-1-[[3-[4-(trifluoromethoxy)phenyl]-9aH-benzo[e]benzimidazol-7-ylidene]methylimino] isothiourea]
≥ 75%: mortality at 300 ppm [1] | mortality at 800 ppm [2] | mortality at 800 ppm [3] | mortality at 500 ppm [4] | mortality at 500 ppm [5] | mortality at 800 ppm [6] | mortality at 800 ppm [7]

Cc1ccccc1NC(=S)N/N=C/c1ccc2c(ccc3c2ncn3-c2ccc(OC(F)(F)F)cc2)c1 [C-23, 3-(o-tolyl)-1-[[3-[4-(trifluoromethoxy)phenyl]-9aH-benzo[e]benzimidazol-7-ylidene]methylimino]isothiourea]
≥ 75%: mortality at 300 ppm [1] | mortality at 800 ppm [3] | mortality at 500 ppm [4] | mortality at 500 ppm [5] | mortality at 800 ppm [6] | mortality at 800 ppm [7]

FC(F)(F)Oc1ccc(-n2cnc3c4ccc(/C=N/NC(=S)Nc5c(Cl)cccc5Cl)cc4ccc32)cc1 [C-37, 1-(2,6-dichlorophenyl)-3-[(E)-[3-[4-(trifluoromethoxy)phenyl]benzo[e]benzimidazol-7-yl]methyleneamino] thiourea]
≥ 75%: mortality at 800 ppm [2] | mortality at 800 ppm [3] | mortality at 500 ppm [4] | mortality at 500 ppm [5] | mortality at 800 ppm [6] | mortality at 800 ppm [7]

Cc1ccc(C)c(NC(=S)N/N=C/c2ccc3c(ccc4c3ncn4-c3ccc(OC(F)(F)F)cc3)c2)c1 [C-41, 1-(2,5-dimethylphenyl)-3-[(E)-[3-[4-(trifluoromethoxy)phenyl]benzo[e]benzimidazol-7-yl]methyleneamino] thiourea]
≥ 75%: mortality at 800 ppm [2] | mortality at 800 ppm [3] | mortality at 500 ppm [4] | mortality at 500 ppm [5] | mortality at 800 ppm [6] | mortality at 800 ppm [7]

COc1cccc(C)c1NC(=S)N/N=C/c1ccc2c(ccc3c2ncn3-c2ccc(OC(F)(F)F)cc2)c1 [C-65, 1-(2-methoxy-6-methyl-phenyl)-3-[(E)-[3-[4-(trifluoromethoxy)phenyl]benzo[e]benzimidazol-7-yl]methyleneamino] thiourea]
≥ 75%: mortality at 800 ppm [2] | mortality at 800 ppm [3] | mortality at 500 ppm [4] | mortality at 500 ppm [5] | mortality at 800 ppm [6] | mortality at 800 ppm [7]

CCc1cccnc1NC(=S)N/N=C/c1ccc2c(ccc3c2ncn3-c2ccc(OC(F)(F)F)cc2)c1 [C-68, 1-(3-ethyl-2-pyridyl)-3-[(E)-[3-[4-(trifluoromethoxy)phenyl]benzo[e]benzimidazol-7-yl]methyleneamino] thiourea]
≥ 75%: mortality at 300 ppm [1] | mortality at 800 ppm [3] | mortality at 500 ppm [5] | mortality at 800 ppm [7]

Fc1cccc(F)c1NC(=S)N/N=C/c1ccc2c(ccc3c2ncn3-c2ccc(OC(F)(F)F)cc2)c1 [C-71, 1-(2,6-difluorophenyl)-3-[(E)-[3-[4-(trifluoromethoxy)phenyl]benzo[e]benzimidazol-7-yl]methyleneamino] thiourea]
≥ 75%: mortality at 300 ppm [1] | mortality at 800 ppm [3] | mortality at 800 ppm [6] | mortality at 800 ppm [7]

Cc1cccc(C)c1NC(=S)N(C)/N=C/c1ccc2c(ccc3c2ncn3-c2ccc(OC(F)(F)F)cc2)c1 [C-85, 3-(2,6-dimethylphenyl)-1-methyl-1-[(E)-[3-[4-(trifluoromethoxy)phenyl]benzo [e]benzimidazol-7-yl]methyleneamino] thiourea]
≥ 75%: mortality at 300 ppm [1] | mortality at 800 ppm [2] | mortality at 800 ppm [3] | mortality at 500 ppm [4] | mortality at 500 ppm [5] | mortality at 800 ppm [6] | mortality at 800 ppm [7]

CCc1cccc(CC)c1NC(=S)N/N=C/c1ccc2c(ccc3c(-c4ccc(OC(F)(F)F)cc4)n(C)nc32)c1 [C-93, 1-(2,6-diethylphenyl)-3-[(E)-[2-methyl-3-[4-(trifluoromethoxy)phenyl]benzo [g]indazol-7-yl]methyleneamino] thiourea]
≥ 75%: mortality at 800 ppm [2] | mortality at 800 ppm [3] | mortality at 500 ppm [4] | mortality at 500 ppm [5] | mortality at 800 ppm [6]

Cc1cccc(C)c1NC(=S)N/N=C/c1ccc2c(c1)CCC1C2=NN(C)C1c1ccc(OC(F)(F)F)cc1 (stereo not shown) [C-94, 1-(2,6-dimethylphenyl)-3-[(E)-[2-methyl-3-[4-(trifluoromethoxy)phenyl]-3,3a,4,5-tetrahydrobenzo[g]indazol-7-yl]methyleneamino]thiourea]
≥ 75%: mortality at 800 ppm [2] | mortality at 800 ppm [3] | mortality at 500 ppm [4] | mortality at 500 ppm [5] | mortality at 800 ppm [6]

Cc1cccc(C)c1NC(=S)N/N=C/c1ccc2c(ccc3c(-c4ccc(OC(F)(F)F)cc4)n(C)nc32)c1 [C-96, 1-(2,6-dimethylphenyl)-3-[(E)-[2-methyl-3-[4-(trifluoromethoxy)phenyl]benzo[g]indazol-7-yl]methyleneamino] thiourea]
≥ 75%: mortality at 800 ppm [2] | mortality at 800 ppm [3] | mortality at 500 ppm [4] | mortality at 500 ppm [5] | mortality at 800 ppm [6] | mortality at 800 ppm [7]

COc1cccc(C)c1NC(=S)N/N=C/c1ccc2c(ccc3c(-c4ccc(OC(F)(F)F)cc4)n(C)nc32)c1 [C-97, 1-(2-methoxy-6-methyl-phenyl)-3-[(E)-[2-methyl-3-[4-(trifluoromethoxy)phenyl]benzo[g]indazol-7-yl]methyleneamino]thiourea]
≥ 75%: mortality at 800 ppm [2] | mortality at 800 ppm [3] | mortality at 500 ppm [5] | mortality at 800 ppm [6] | mortality at 800 ppm [7]

Cc1cccc([S+](C)[O-])c1NC(=S)N/N=C/c1ccc2c(ccc3c2ncn3-c2ccc(OC(F)(F)F)cc2)c1 (stereo not shown) [C-104, 1-(2-methyl-6-methylsulfinyl-phenyl)-3-[(E)-[3-[4-(trifluoromethoxy)phenyl]benzo[e]benzimidazol-7-yl]methyleneamino]thiourea]
≥ 75%: mortality at 300 ppm [1] | mortality at 800 ppm [2] | mortality at 800 ppm [3] | mortality at 500 ppm [4] | mortality at 500 ppm [5] | mortality at 800 ppm [6] | mortality at 800 ppm [7]

Cc1cccc(C)c1NC(=S)N/N=C/c1ccc2c(ccc3c2ncn3-c2ccc(Cl)cc2)c1 [C-106, 1-[(E)-[3-(4-chlorophenyl)benzo[e]benzimidazol-7-yl]methyleneamino]-3-(2,6-dimethylphenyl)thiourea]
≥ 75%: mortality at 300 ppm [1] | mortality at 800 ppm [2] | mortality at 800 ppm [3] | mortality at 800 ppm [6] | mortality at 800 ppm [7]
